# Source: patent US20240270809A1, “ORAL GLP RECEPTOR AGONISTS” (priority 2020, published 2024)
# Where two headings read alike, the source gives them in different places. Positions of bridges follow the written chain, without caps; N, C: chain ends. Non-standard residues stand in square brackets, D forms with d. Residues, ends and D or L forms follow the SMILES beside them. *: point of attachment. Malonyl(2,2-Me2,histaminyl) = CC(C)(C(=O)NCCc1cnc[nH]1)C(=O)*; Ala(1H-tetrazol-5-yl) = N[C@@H](Cc1nnn[nH]1)C(=O)O; αMeL = CC(C)C[C@](C)(N)C(=O)O; Nle = CCCC[C@H](N)C(=O)O; Aib = CC(C)(N)C(=O)O
# How the values were obtained:
# Format in all cases: cell-based
# human GLP2 receptor = molecular target: T1, human GLP2 receptor (Homo sapiens, UniProt O95838); test: cAMP accumulation assay, functional agonism of human GLP2 receptor; settings: HEK cells infected with human GLP2 receptor BacMam virus, HTRF cAMP; for Emax: HEK293, read-out: Human GLP-2R agonist cAMP Emax; for EC50: read-out: Human GLP-2R agonist cAMP pEC50 (converted)
# T1 construct: expressed in transfected cells; host or cells: HEK cells, BacMam virus transduction
# T1 sequence (O95838 1-553): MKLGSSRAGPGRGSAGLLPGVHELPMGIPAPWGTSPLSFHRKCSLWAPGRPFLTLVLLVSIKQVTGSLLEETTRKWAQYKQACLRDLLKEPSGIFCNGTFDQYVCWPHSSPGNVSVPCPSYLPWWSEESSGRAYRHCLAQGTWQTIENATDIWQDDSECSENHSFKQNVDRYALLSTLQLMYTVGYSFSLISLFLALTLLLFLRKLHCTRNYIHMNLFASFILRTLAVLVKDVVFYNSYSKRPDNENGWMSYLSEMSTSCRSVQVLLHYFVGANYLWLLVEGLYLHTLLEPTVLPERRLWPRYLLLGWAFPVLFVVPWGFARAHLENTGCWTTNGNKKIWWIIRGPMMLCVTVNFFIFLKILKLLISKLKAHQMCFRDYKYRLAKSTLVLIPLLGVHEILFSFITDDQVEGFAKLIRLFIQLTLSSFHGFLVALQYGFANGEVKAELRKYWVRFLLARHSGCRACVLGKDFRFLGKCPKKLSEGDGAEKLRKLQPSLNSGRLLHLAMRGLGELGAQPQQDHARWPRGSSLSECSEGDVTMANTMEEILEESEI
# Procedure, shortened: (§1)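 Frozen HEK cells, previously BacMam-infected 24 h to express either receptor, are stimulated for 45 min at 37° C in IBMX-containing (0.5 mM) HBSS. The reaction is then terminated with HTRF reagents in lysis buffer.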
# mouse GLP1 receptor = molecular target: T2, mouse GLP1 receptor (Mus musculus, UniProt O35659); test: cAMP accumulation assay, functional agonism of mouse GLP1 receptor
# T2 construct: expressed in transfected cells; host or cells: HEK cells, transient transfection with GeneJuice
# T2 sequence (O35659 22-463): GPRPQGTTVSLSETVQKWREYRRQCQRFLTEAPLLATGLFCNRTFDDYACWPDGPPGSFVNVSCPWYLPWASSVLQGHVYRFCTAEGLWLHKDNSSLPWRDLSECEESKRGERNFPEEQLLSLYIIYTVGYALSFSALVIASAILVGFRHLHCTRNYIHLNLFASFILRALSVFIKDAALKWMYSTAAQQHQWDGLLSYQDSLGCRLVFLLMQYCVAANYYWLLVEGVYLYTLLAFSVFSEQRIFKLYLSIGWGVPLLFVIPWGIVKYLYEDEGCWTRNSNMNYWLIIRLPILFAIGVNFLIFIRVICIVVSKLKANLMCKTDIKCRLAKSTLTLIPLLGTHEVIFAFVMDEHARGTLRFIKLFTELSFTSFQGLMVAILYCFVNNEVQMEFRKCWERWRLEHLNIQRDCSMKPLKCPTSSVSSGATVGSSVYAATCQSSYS
# human GLP1 receptor = molecular target: T3, human GLP1 receptor (Homo sapiens, UniProt P43220); test: cAMP accumulation assay, functional agonism of human GLP1 receptor; settings: HEK cells infected with human GLP1 receptor BacMam virus, HTRF cAMP; for Emax: HEK293, read-out: Human GLP-1R agonist cAMP Emax; for EC50: read-out: Human GLP-1R agonist cAMP pEC50 (converted)
# T3 construct: expressed in transfected cells; host or cells: HEK cells, BacMam virus transduction
# Procedure, shortened: as §1
# mouse GLP2 receptor = molecular target: T4, mouse GLP2 receptor (Mus musculus, UniProt Q5IXF8); test: cAMP accumulation assay, functional agonism of mouse GLP2 receptor
# T4 construct: expressed in transfected cells; host or cells: HEK cells, transient transfection with GeneJuice
# T4 sequence (Q5IXF8 1-512): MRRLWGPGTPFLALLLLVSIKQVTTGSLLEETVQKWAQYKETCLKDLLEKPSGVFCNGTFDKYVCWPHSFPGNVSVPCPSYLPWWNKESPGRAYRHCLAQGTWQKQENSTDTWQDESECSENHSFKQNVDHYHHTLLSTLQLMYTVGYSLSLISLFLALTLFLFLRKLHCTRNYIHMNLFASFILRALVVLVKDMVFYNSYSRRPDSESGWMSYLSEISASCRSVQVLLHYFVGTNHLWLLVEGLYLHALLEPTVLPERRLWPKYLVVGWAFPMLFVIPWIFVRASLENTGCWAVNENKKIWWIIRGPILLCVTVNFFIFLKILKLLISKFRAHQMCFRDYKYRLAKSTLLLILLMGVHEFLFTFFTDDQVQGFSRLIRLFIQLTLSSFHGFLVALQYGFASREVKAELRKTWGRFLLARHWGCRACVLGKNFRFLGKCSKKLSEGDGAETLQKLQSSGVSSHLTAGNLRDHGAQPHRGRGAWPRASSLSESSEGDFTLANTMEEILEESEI
# Procedure, shortened: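 Transiently transfected HEK cells (24 h, frozen, 8000/well) in HBSS with 0.5 mM IBMX exposed to compound concentration series for 45 min at 37 °C. cAMP measured by HTRF after lysis and 1 h at RT; pEC50 from four-parameter concentration-response fit.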
# [1] = HEK293, HEK cells transiently transfected with mouse GLP1 receptor, HTRF cAMP, read-out: Mouse GLP-1R agonist cAMP Emax
# [2] = HEK cells transiently transfected with mouse GLP1 receptor, HTRF cAMP, read-out: Mouse GLP-1R agonist cAMP pEC50 (converted)
# [3] = HEK293, HEK cells transiently transfected with mouse GLP2 receptor, HTRF cAMP, read-out: Mouse GLP-2R agonist cAMP Emax
# [4] = HEK cells transiently transfected with mouse GLP2 receptor, HTRF cAMP, read-out: Mouse GLP-2R agonist cAMP pEC50 (converted)
# T3 sequence (P43220 24-463): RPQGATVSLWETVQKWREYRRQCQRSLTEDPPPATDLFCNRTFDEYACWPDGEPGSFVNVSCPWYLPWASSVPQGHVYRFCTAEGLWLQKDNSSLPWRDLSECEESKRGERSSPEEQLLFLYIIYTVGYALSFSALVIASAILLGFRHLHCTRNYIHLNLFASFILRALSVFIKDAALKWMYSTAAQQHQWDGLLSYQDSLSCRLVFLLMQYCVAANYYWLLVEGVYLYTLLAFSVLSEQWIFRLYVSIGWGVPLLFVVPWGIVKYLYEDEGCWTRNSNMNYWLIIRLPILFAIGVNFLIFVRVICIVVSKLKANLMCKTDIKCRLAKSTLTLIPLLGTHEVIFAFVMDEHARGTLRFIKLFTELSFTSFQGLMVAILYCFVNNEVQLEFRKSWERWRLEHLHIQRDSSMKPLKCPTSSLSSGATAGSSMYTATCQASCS
Emax (human GLP2 receptor) [%],EC50 (human GLP2 receptor) [nM],Emax (mouse GLP1 receptor; [1]) [%],EC50 (mouse GLP1 receptor; [2]) [nM],Emax (human GLP1 receptor) [%],EC50 (human GLP1 receptor) [nM],Emax (mouse GLP2 receptor; [3]) [%],EC50 (mouse GLP2 receptor; [4]) [nM],SMILES,EC50 (mouse GLP1 receptor) [nM],"Emax (mouse GLP1 receptor; HEK293, read-out: Mouse GLP-1R agonist cAMP Emax) [%]",EC50 (mouse GLP2 receptor) [nM],"Emax (mouse GLP2 receptor; HEK293, read-out: Mouse GLP-2R agonist cAMP Emax) [%]"
99.3,0.002,94.8,10,96.5,10,98.9,0.0126,CCCC[C@H](NC(=O)[C@H](CCC(=O)O)NC(=O)[C@H](CC(=O)O)NC(=O)[C@H](CO)NC(=O)[C@H](Cc1ccccc1)NC(=O)[C@H](CO)NC(=O)CNC(=O)[C@H](CC(=O)O)NC(=O)C(C)(C)NC(=O)[C@@H](N)Cc1c[nH]cn1)C(=O)N[C@H](Cc1ccccc1)C(=O)N[C@H](C(=O)N[C@H](C(=O)N[C@@H](CC(C)C)C(=O)N[C@@H](CC(=O)O)C(=O)N[C@H]1CC(=O)NCCCC[C@@H](C(=O)N[C@@H](CC(=O)O)C(=O)N[C@@H](Cc2ccccc2)C(=O)N[C@H](C(=O)N[C@@H](CC(N)=O)C(=O)N[C@@H](Cc2c[nH]c3ccccc23)C(=O)N[C@@H](CC(C)C)C(=O)N[C@H](C(=O)N[C@@H](CCC(N)=O)C(=O)N[C@H](C(=O)N[C@@H](CCCCN)C(=O)N[C@H](C(=O)N[C@H](C(=O)N[C@@H](CC(=O)O)C(N)=O)[C@@H](C)O)[C@@H](C)CC)[C@@H](C)O)[C@@H](C)CC)[C@@H](C)CC)NC(=O)[C@H](C)NC(=O)[C@H](C)NC(=O)[C@H](CCCCN)NC1=O)[C@@H](C)CC)[C@@H](C)O [Example 92] (H-H[Aib]DGSFSDE[Nle][dF]TILDDKAAKDFINWLIQTKITD-NH2; lactam 16-20; N-terminus and C-terminus assumed),–,–,–,–
102,0.00794,94.7,5.01,97,3.98,102,0.00794,"CCCC[C@H](NC(=O)[C@H](CCC(=O)O)NC(=O)[C@H](CC(=O)O)NC(=O)[C@H](CO)NC(=O)[C@H](Cc1ccccc1)NC(=O)[C@H](CO)NC(=O)CNC(=O)[C@H](Cc1nn[nH]n1)NC(=O)C(C)(C)C(=O)NCCc1c[nH]cn1)C(=O)N[C@H](Cc1ccccc1)C(=O)N[C@H](C(=O)N[C@H](C(=O)N[C@@H](CC(C)C)C(=O)N[C@@H](CC(=O)O)C(=O)N[C@H]1CC(=O)NCCCC[C@@H](C(=O)N[C@@H](CC(=O)O)C(=O)N[C@@H](Cc2ccccc2)C(=O)N[C@H](C(=O)N[C@@H](CC(N)=O)C(=O)N[C@@H](Cc2c[nH]c3ccccc23)C(=O)N[C@@H](CC(C)C)C(=O)N[C@H](C(=O)N[C@@H](CCC(N)=O)C(=O)N[C@H](C(=O)N[C@@H](CCCCN)C(=O)N[C@H](C(=O)N[C@H](C(=O)N[C@@H](Cc2ccccc2)C(N)=O)[C@@H](C)O)[C@@H](C)CC)[C@@H](C)O)[C@@H](C)CC)[C@@H](C)CC)NC(=O)[C@H](C)NC(=O)[C@H](C)NC(=O)[C@H](CCCCN)NC1=O)[C@@H](C)CC)[C@@H](C)O [Example 95] ({Malonyl(2,2-Me2,histaminyl)}-[Ala(1H-tetrazol-5-yl)]GSFSDE[Nle][dF]TILDDKAAKDFINWLIQTKITF-NH2; lactam 14-18; C-terminus assumed)",–,–,–,–
103,0.00794,95.5,0.2,94.4,0.316,99.9,0.316,"CCCC[C@H](NC(=O)[C@H](CCC(=O)O)NC(=O)[C@H](CC(=O)O)NC(=O)[C@H](CO)NC(=O)[C@H](Cc1ccccc1)NC(=O)[C@H](CO)NC(=O)[C@@H](C)NC(=O)[C@H](Cc1nn[nH]n1)NC(=O)C(C)(C)C(=O)NCCc1c[nH]cn1)C(=O)N[C@H](Cc1ccccc1)C(=O)N[C@H](C(=O)N[C@@](C)(CC(C)C)C(=O)N[C@@H](CC(C)C)C(=O)N[C@@H](CC(=O)O)C(=O)N[C@H]1CCC(=O)NCCCC[C@@H](C(=O)N[C@@H](CC(=O)O)C(=O)N[C@@H](Cc2ccccc2)C(=O)N[C@H](C(=O)N[C@H]2CCC(=O)NCCCC[C@@H](C(=O)N[C@H](C(=O)N[C@@H](CCCCN)C(=O)N[C@H](C(=O)N[C@H](C(=O)N[C@@H](Cc3ccccc3)C(N)=O)[C@@H](C)O)[C@@H](C)CC)[C@@H](C)O)NC(=O)[C@H]([C@@H](C)CC)NC(=O)[C@H](CC(C)C)NC(=O)[C@H](Cc3c[nH]c4ccccc34)NC2=O)[C@@H](C)CC)NC(=O)[C@H](C)NC(=O)[C@H](C)NC(=O)[C@H](CCCCN)NC1=O)[C@@H](C)O [Example 116] ({Malonyl(2,2-Me2,histaminyl)}-[Ala(1H-tetrazol-5-yl)][dA]SFSDE[Nle][dF]T[αMeL]LDEKAAKDFIEWLIKTKITF-NH2; lactam 14-18, 22-26 (inferred); C-terminus assumed)",–,–,–,–

SMILES,Emax (human GLP2 receptor) [%],EC50 (human GLP2 receptor) [nM],Emax (mouse GLP1 receptor; [1]) [%],EC50 (mouse GLP1 receptor; [2]) [nM],Emax (human GLP1 receptor) [%],EC50 (human GLP1 receptor) [nM],Emax (mouse GLP2 receptor; [3]) [%],EC50 (mouse GLP2 receptor; [4]) [nM],EC50 (mouse GLP1 receptor) [nM],"Emax (mouse GLP1 receptor; HEK293, read-out: Mouse GLP-1R agonist cAMP Emax) [%]",EC50 (mouse GLP2 receptor) [nM],"Emax (mouse GLP2 receptor; HEK293, read-out: Mouse GLP-2R agonist cAMP Emax) [%]"
"CCCC[C@H](NC(=O)[C@H](CCC(=O)O)NC(=O)[C@H](CC(=O)O)NC(=O)[C@H](CO)NC(=O)[C@H](Cc1ccccc1)NC(=O)[C@H](CO)NC(=O)CNC(=O)[C@H](Cc1nn[nH]n1)NC(=O)C(C)(C)C(=O)NCCc1c[nH]cn1)C(=O)N[C@H](Cc1ccccc1)C(=O)N[C@H](C(=O)N[C@H](C(=O)N[C@@H](CC(C)C)C(=O)N[C@@H](CC(=O)O)C(=O)N[C@H]1CCC(=O)NCCCC[C@@H](C(=O)N[C@@H](CC(=O)O)C(=O)N[C@@H](Cc2ccccc2)C(=O)N[C@H](C(=O)N[C@@H](CC(N)=O)C(=O)N[C@@H](Cc2c[nH]c3ccccc23)C(=O)N[C@@H](CC(C)C)C(=O)N[C@H](C(=O)N[C@@H](CCC(N)=O)C(=O)N[C@H](C(=O)N[C@@H](CCCCN)C(=O)N[C@H](C(=O)N[C@H](C(=O)N[C@@H](Cc2ccccc2)C(N)=O)[C@@H](C)O)[C@@H](C)CC)[C@@H](C)O)[C@@H](C)CC)[C@@H](C)CC)NC(=O)[C@H](C)NC(=O)[C@H](C)NC(=O)[C@H](CCCCN)NC1=O)[C@@H](C)CC)[C@@H](C)O [Example 96] ({Malonyl(2,2-Me2,histaminyl)}-[Ala(1H-tetrazol-5-yl)]GSFSDE[Nle][dF]TILDEKAAKDFINWLIQTKITF-NH2; lactam 14-18)",101,0.00631,–,–,96.4,0.501,–,–,0.794,96.1,0.794,101
